This is an account of results in patent publication US10882833B2, “Phenylate derivative, preparation method therefor, and pharmaceutical composition and uses thereof” (Institute of Materia Medica, Chinese Academy of Medical …, priority 2016, dated 2021).

pIC50: −log10 of the molar value. Where a name gives a salt, the structure may show the parent alone.

Sequence of interaction between PD-1 and PD-L1 (Q9NZQ7 19-238): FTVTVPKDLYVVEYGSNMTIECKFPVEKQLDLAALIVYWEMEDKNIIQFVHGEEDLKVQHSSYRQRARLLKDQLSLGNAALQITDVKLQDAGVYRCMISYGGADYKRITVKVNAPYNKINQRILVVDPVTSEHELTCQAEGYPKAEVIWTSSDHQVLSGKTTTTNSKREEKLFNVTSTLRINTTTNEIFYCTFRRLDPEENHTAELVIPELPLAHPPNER

One assay deals with interaction between PD-1 and PD-L1 (Homo sapiens (Human), UniProt Q9NZQ7). As to the kind of experiment: Cisbio PD-1/PD-L1 binding assay kit (HTRF). Conditions: 8-10 concentrations, read-out: IC50, inhibitory activity at molecular level on the interaction between PD-1 and PD-L1. The text has this:
• 1. In vitro activity evaluation: Cisbio PD-1/PD-L1 binding assay kit was applied for the detection method of in vitro enzymology level. Screening Principles and Methods of PD-1/PD-L1 Small Molecule Inhibitors • 1) Principle: PD-1 protein is with HIS tag, and PD-1 ligand PD-L1 is with hFc tag. Eu labeled anti-hFc antibody and XL665 labeled anti-HIS antibody are combined with the above two label proteins respectively. After laser excitation, energy can be transferred from donor Eu to receptor XL665, allowing XL665 to glow. […] Reagents should be dispensed in the following order. For 384-well white ELISA plate, 2 μl of diluent or target compound diluted with diluent was added to each well, and then 4 μl of PD-1 protein and 4 μl of PD-L1 protein were added per well, incubated for 15 min at room temperature; and 10 μl of a mixture of anti-Tag1-Eu3+ and anti-Tag2-XL665 was added per well and incubated for 1 h to 4 h at room temperature and the fluorescence signals at 665 nm and 620 nm were measured with an Envison instrument. HTRF rate=(665 nm/620 nm)*10^4. 8-10 concentrations were detected for each compound and IC50 was calculated by Graphpad software. • 3) The results of the screening were shown in Table 1.
Consider `NC(=O)[C@H](CO)NCc1cc(Cl)c(OCc2cccc(-c3ccccc3)c2Br)cc1OCC1CC1` (stereo in doubt) [Example 9, 2-(4-(2-bromo-3-phenylbenzyloxy)-5-chloro-2-(cyclopropylmethoxy)benzylamino)-3-hydroxypropanamide], for which the pIC50 is 7.09. As to `NC(=O)COc1cc(OCc2cccc(-c3ccccc3)c2Br)c(Cl)cc1CN[C@@H](CO)C(=O)O` [Example 1, (S)—N-(4-(2-bromo-3-phenylbenzyloxy)-5-chloro-2-(carbamoylmethoxy)benzyl)serine], the pIC50 was 6.51. Still for that read-out and setting: as for `COc1cc(OCc2cccc(-c3ccccc3)c2Br)c(Cl)cc1CNCCNC(C)=O` [Example 2, N-acetylaminoethyl-4-(2-bromo-3-phenylbenzyloxy)-5-chloro-2-methoxy benzylamine hydrochloride], the figure is 6.14. As for `C=CCOc1cc(OCc2cccc(-c3ccccc3)c2Br)c(Cl)cc1CNCCNC(C)=O` [Example 3, N-acetylaminoethyl-4-(2-bromo-3-phenylbenzyloxy)-5-chloro-2-allyloxy benzylamine], the pIC50 was 6.90. The same measure, in the same setting: as for `C#CCOc1cc(OCc2cccc(-c3ccccc3)c2Br)c(Cl)cc1CNCCNC(C)=O` [Example 4, N-acetylaminoethyl-4-(2-bromo-3-phenylbenzyloxy)-5-chloro-2-(prop-2-ynyloxy)benzylamine], the figure is 5.74. Same read-out and setting: the same measure for `CC(=O)NCCNCc1cc(Cl)c(OCc2cccc(-c3ccccc3)c2Br)cc1OCC1CC1` [Example 5, N-acetylaminoethyl-4-(2-bromo-3-phenylbenzyloxy)-5-chloro-2-(cyclopropylmethoxy)benzylamine]: 5.94; for `CN(C)C(=O)COc1cc(OCc2cccc(-c3ccccc3)c2Br)c(Cl)cc1CNC(CO)C(=O)O` (stereo not shown) [Example 6]: 7.37; for `C[C@@H](O)[C@H](NCc1cc(Cl)c(OCc2cccc(-c3ccccc3)c2Br)cc1OCC1CC1)C(=O)O` [Example 8, N-(4-(2-bromo-3-phenylbenzyloxy)-5-chloro-2-(cyclopropylmethoxy)benzyl)threonine]: 7.99. Still for that read-out and setting: as for `CC(=O)NCCNCc1cc(Cl)c(OCc2cccc(-c3ccccc3)c2Br)cc1OCC1CC1` [Example 10, N-acetylaminoethyl-4-(2-bromo-3-phenylbenzyloxy)-5-chloro-2-(cyclopropylmethoxy)benzylamine], the figure is 6.00; as for `NC(=O)NCCC[C@H](NCc1cc(Cl)c(OCc2cccc(-c3ccccc3)c2Br)cc1OCC1CC1)C(=O)O` [Example 11, N-(4-(2-bromo-3-phenylbenzyloxy)-5-chloro-2-(cyclopropylmethoxy)benzyl)Citrulline], 5.85.

For `CON(C)C(=O)COc1cc(OCc2cccc(-c3ccccc3)c2Br)c(Cl)cc1CN[C@@H](CO)C(=O)O` [Example 12, N-(4-(2-bromo-3-phenylbenzyloxy)-5-chloro-2-(N-methoxy-N-methylcarbamoylmethoxy)benzyl)serine], the pIC50 was 6.72. As to `O=C(O)[C@H](CO)NCc1cc(Cl)c(OCc2cccc(-c3ccccc3)c2Br)cc1OCC(=O)N1CCOCC1` [Example 13, N-(4-(2-bromo-3-phenylbenzyloxy)-5-chloro-2-(2-morpholino-2-oxoethoxy)benzyl)serine], the pIC50 was 7.38. On the same count and under the same terms, as for `O=C(O)[C@H](CO)NCc1cc(Cl)c(OCc2cccc(-c3ccccc3)c2Br)cc1OCC1CC1` [Example 14, (S)—N-(4-(2-bromo-3-phenylbenzyloxy)-5-chloro-2-(cyclopropylmethoxy)benzyl)serine], the figure is 7.38; as for `O=C(COc1cc(OCc2cccc(-c3ccccc3)c2Br)c(Cl)cc1CN1CCCC[C@H]1C(=O)O)NO` [Example 15, (S)—N-(4-(2-bromo-3-phenylbenzyloxy)-5-chloro-2-(N-hydroxycarbamoylmethoxy)benzyl)Pipecolinic Acid], 6.74; as for `O=C(O)[C@@H]1C[C@H](O)CN1Cc1cc(Cl)c(OCc2cccc(-c3ccc4c(c3)OCCO4)c2Br)cc1OCC1CC1` [Example 17, (S,S)—N-(4-(2-bromo-3-(2,3-dihydrobenzo[b][1,4]dioxin-6-yl)benzyloxy)-5-chloro-2-(cyclopropylmethoxy)benzyl)-4-hydroxyproline], 7.39.

For another assay, the system named is pleural mesothelioma (PM).
Assay: not given
Conditions: 25 patients with pleural mesothelioma; cited from earlier work.
On to pembrolizumab [Keytruda], for which the disease control rate is recorded as 76% and the “overall response rate (ORR)” value is 28%.

For the next assay, the system named is advanced Hodgkin's lymphoma (HL).
Assay: not given
The note with it: patients with no treatment response to any approved drug; cited from earlier work.
Take nivolumab [Opdvio]: the “treatment outcome in advanced Hodgkin's lymphoma” value is “complete remission”. With pembrolizumab [Keytruda], the “treatment outcome in advanced Hodgkin's lymphoma” value is “complete remission”.

By pIC50 is commonly meant the IC50 on a negative log10 scale, so that one unit is a factor of ten.
